Laboratory results: ChEMBL document CHEMBL1150028, “-((Tetronoyl)oxy)- and -((tetramoyl)oxy)methyl ketone inhibitors of the interleukin-1 converting enzyme (ICE)” (Bioorg Med Chem Lett, 1997)

Experiments:
[1] = Stability of compound was determined by its half life period; type: physicochemical
Caspase-1 (Homo sapiens) = molecular target: T1, Caspase-1 (Homo sapiens) (UniProt P29466); experiment: Inhibitory activity against IL-1 beta converting enzyme was determined
T1 sequence (whole entry): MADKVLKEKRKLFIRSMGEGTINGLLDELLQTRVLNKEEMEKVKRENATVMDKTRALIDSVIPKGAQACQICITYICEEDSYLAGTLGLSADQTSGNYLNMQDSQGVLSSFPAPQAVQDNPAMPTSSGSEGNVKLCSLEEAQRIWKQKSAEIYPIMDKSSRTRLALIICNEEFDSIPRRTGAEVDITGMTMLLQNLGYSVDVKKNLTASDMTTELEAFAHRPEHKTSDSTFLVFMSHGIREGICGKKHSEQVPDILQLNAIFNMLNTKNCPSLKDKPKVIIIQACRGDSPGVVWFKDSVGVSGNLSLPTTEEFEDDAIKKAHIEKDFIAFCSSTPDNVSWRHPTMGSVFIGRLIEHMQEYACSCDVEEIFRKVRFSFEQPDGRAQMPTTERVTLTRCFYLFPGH

half-life [1]	K obs / 1 (Caspase-1 (Homo sapiens))	SMILES
5700 min	8500 M⁻¹ s⁻¹	CC(C)[C@H](NC(=O)OCc1ccccc1)C(=O)N[C@@H](CC(=O)O)C(=O)COC1=C(c2ccccc2)C(=O)NC1
1200 min		CC(C)[C@H](NC(=O)OCc1ccccc1)C(=O)N[C@@H](C)C(=O)N[C@@H](CC(=O)O)C(=O)COC1=C(Cc2ccccc2)C(=O)OC1
	260 M⁻¹ s⁻¹	CC1(C)OC(=O)C(c2ccccc2)=C1OCC(=O)[C@H](CC(=O)O)NC(=O)OCc1ccccc1
588 min	2850 M⁻¹ s⁻¹	O=C(O)C[C@H](NC(=O)OCc1ccccc1)C(=O)COC1=C(Cc2ccccc2)C(=O)OC1
	21200 M⁻¹ s⁻¹	CC(C)[C@H](NC(=O)OCc1ccccc1)C(=O)N[C@@H](CC(=O)O)C(=O)COC1=C(Cc2ccccc2)C(=O)OC1
	188 M⁻¹ s⁻¹	O=C(O)C[C@H](NC(=O)OCc1ccccc1)C(=O)COC1=CC(=O)OC1
	27900 M⁻¹ s⁻¹	CC(C)[C@H](NC(=O)OCc1ccccc1)C(=O)N[C@@H](CC(=O)O)C(=O)COC1=C(c2ccccc2)C(=O)OC1
	< 25 M⁻¹ s⁻¹	O=C(O)C[C@H](NC(=O)OCc1ccccc1)C(=O)COC1=C(Cl)C(=O)OC1
	41000 M⁻¹ s⁻¹	CC(C)[C@H](NC(=O)OCc1ccccc1)C(=O)N[C@@H](CC(=O)O)C(=O)COC(=O)c1c(Cl)cccc1Cl
	7100 M⁻¹ s⁻¹	O=C(O)C[C@H](NC(=O)OCc1ccccc1)C(=O)COC(=O)c1c(Cl)cccc1Cl
234 min	3070 M⁻¹ s⁻¹	O=C(O)C[C@H](NC(=O)OCc1ccccc1)C(=O)COC1=C(c2ccccc2)C(=O)CC1
	4100 M⁻¹ s⁻¹	O=C(O)C[C@H](NC(=O)OCc1ccccc1)C(=O)COC1=C(c2ccc(Cl)cc2)C(=O)OC1
	640 M⁻¹ s⁻¹	O=C(O)C[C@H](NC(=O)OCc1ccccc1)C(=O)COC1=C(c2ccc(Cl)c(Cl)c2)C(=O)OC1
51.6 min	5700 M⁻¹ s⁻¹	O=C(O)C[C@H](NC(=O)OCc1ccccc1)C(=O)COC1=C(c2ccccc2)C(=O)OC1
	4000 M⁻¹ s⁻¹	COc1ccc(C2=C(OCC(=O)[C@H](CC(=O)O)NC(=O)OCc3ccccc3)COC2=O)cc1
	4500 M⁻¹ s⁻¹	Cc1ccc(C2=C(OCC(=O)[C@H](CC(=O)O)NC(=O)OCc3ccccc3)COC2=O)cc1
